According to patent US6159953A, “Anti-malarial composition and method of use” (Catholic University of America, priority 1992, dated 2000):
pIC50: −log10 of the molar value. Where two headings read alike, the source gives them in different places.

Key:
mammalian cell lines = test: Toxicity to a battery of mammalian cell lines; assay type: cell-based, human and mouse
Excerpt: (§1) 2. Effects of orotate analogues on cell viability and the ability to synthesize nucleic acids from radioactive precursors, and the rescuing effects of normal pyrimidine bases or nucleosides or amino acid derivatives such as histidinol, can be tested in human-derived tissue culture cell lines. Human HT-1080 human sarcoma cells [Rusheed, S., et al., Cancer, 33:1027-30 (1974)], human diploid IMR-90 cells [Nichols, W. W., et al., Science, 196:60-3 (1977)], human cervical […] HeLa S3 cells [Puck, T. T., et al., J. Exp. Med., 103:273-84 (1956)], HL-60 human myeloid leukemia cells [Collins, S. J., et al., Nature, 270:347-9 (1977)], and mouse leukemia L-1210 cells [Moore, G. E., J. Nat. […] The growth medium most suitable for each cell line can be determined by reference to the publications cited above: briefly, HT-1080 cells are maintained in Eagle's Minimal Essential Medium (EMEM) supplemented with 5% fetal bovine serum (FBS) and 2 mM L-glutamine; IMR-90 cells are grown in EMEM supplemented with 10% FBS, 10 mM Hepes buffer, 0.21% NaHCO3, and 2 mM L-glutamine. […]
(§2) Toxicity of pyrimidine analogues to cultured human cells is determined as follows. […] Thereafter, the number of cells in each well is determined. […] Cells that grow in suspension (e.g., HL-60 and L-1210 cells) are transferred to centrifuge tubes, pelleted at low speed, washed, and the viability determined as above. […]

[1] = test system: IMR-90 human lung fibroblast cells; test: Toxicity to cultured IMR-90 cells, number of viable cells; assay type: cell-based
Excerpt: as §1, §2

[2] = test system: HT-1080 human fibrosarcoma cells; test: Toxicity to cultured HT-1080 cells, number of viable cells; assay type: cell-based; conditions: for pIC50: Homo sapiens
Experimental: Each data point represents an average of two determinations. […] Each data point represents an average of two determinations.
Half shaded symbols represent overlapping data points.
Toxicity of pyrimidine analogues to cultured human cells is determined as follows. Mammalian cells are seeded into culture plate wells, and growth medium is added. The following day, fresh culture medium containing the appropriate pyrimidine analogues is added to the wells, and the plates incubated for a period of time and at a temperature appropriate to the cell line and the experimental requirements. Thereafter, the number of cells in each well is determined. […] Cells that grow in suspension (e.g., HL-60 and L-1210 cells) are transferred to centrifuge tubes, pelleted at low speed, washed, and the viability determined as above.
HT-1080 cells were seeded into 6-well culture plates at a density of 50,000 cells per 9.6 cm^2 well. Each well contained 2.5 ml of growth medium. […] After 1 minute, the detached cells were suspended in 1.0 ml of EMEM and collected by centrifugation at 300×g for 3 minutes. […] The concentrations of viable cells were determined in a hemocytometer.

[3] = test system: HL-60 human promyelocytic leukemia cells; test: Toxicity to cultured HL-60 cells, number of viable cells; assay type: cell-based
Excerpt: as §1, §2

[4] = test system: Plasmodium falciparum, Sierra Leone clone; test: Increase in parasitemia by light microscopy (Giemsa-stained smears), Sierra Leone clone; assay type: cell-based, P. falciparum; conditions: Table 2, light microscopy
Experimental: Additionally, parasite-infected and treated erythrocytes can be smeared on microscope slides, stained with, e.g., Giemsa stain, and the ratio of infected to non-infected erythrocytes determined.
The chloroquine-sensitive Sierra Leone clone of P. falciparum was cultured in erythrocytes as in Example 1 above. In one method of determining the toxicity of 5-fluoro-orotate, [G-^3 H]-hypoxanthine uptake was used as an indicator of parasite proliferation, according to the procedure of Example 1 above. In a second method, the increase in parasitemia was determined directly by smearing infected erythrocytes on microscope slides, staining with Giemsa stain, and determining the ratio of infected to non-infected erythrocytes. In a third method, parasite-infected erythrocytes were incubated with [U-^14 C]-isoleucine (0.5 μCi; 0.33 Ci/mmol), and the amount of radioactivity incorporated into precipitable proteins determined.

[5] = test system: HeLa S3 human cervix epithelioid carcinoma cells; test: Toxicity to cultured HeLa S3 cells, number of viable cells; assay type: cell-based
Excerpt: as §1, §2

O=C(O)c1[nH]c(=O)[nH]c(=O)c1F [5-fluoro-orotate]
toxicity to rapidly dividing mammalian cells (mammalian cell lines; 0.1 to 1 μM, in culture): not toxic to rapidly dividing mammalian cells in culture | pIC50 (mammalian cell lines; read-out: IC50 range over the mammalian cell lines): 5.00 to 6.05 | pIC50 ([1]; IMR-90, with 1 mM uridine, read-out: IC50 With 1 mM Uridine): 5.66 | pIC50 ([1]; IMR-90, without uridine, read-out: IC50 Without Uridine): 5.96 | decrease of cytotoxicity by 1 mM uridine ([2]; HT-1080, 48 h, simultaneous 1 mM uridine (FIG. 2)): 5 -fold | pIC50 ([2]; HT-1080, 48 h, read-out: IC50 (50% inhibition)): ~5.00 | pIC50 ([2]; HT-1080, read-out: IC50 With 1 mM Uridine): 4.30 | pIC50 ([2]; HT-1080, read-out: IC50 Without Uridine): 5.00 | pIC50 ([3]; HL-60, with 1 mM uridine, read-out: IC50 With 1 mM Uridine): 5.35 | pIC50 ([3]; HL-60, without uridine, read-out: IC50 Without Uridine): 6.05 | pIC50 [4]: 8.60 | pIC50 ([5]; HeLa S3, with 1 mM uridine, read-out: IC50 With 1 mM Uridine): 5.46 | pIC50 ([5]; HeLa S3, without uridine, read-out: IC50 Without Uridine): 5.70
